Test results: PMC11008251, “Distribution of 2,2′,5,5′-Tetrachlorobiphenyl (PCB52) Metabolites in Adolescent Rats after Acute Nose-Only Inhalation Exposure” (Environmental Science & Technology, 2024)
Like-named read-outs stand apart in the source and are kept apart here.

Assays:
[1] = PCB52 and monohydroxylated metabolite tissue levels by GC-MS/MS after 4 h nose-only inhalation; format: in vivo, Sprague–Dawley rats; settings: Sprague-Dawley, rat, inhaled
Experimental: PCB52 vapor for the animal exposure was generated using a published protocol.[12] Briefly, 450 g of 3 mm diameter glass beads were added to a solution of 1.5 g of PCB52 in dichloromethane. The glass beads were then coated with PCB52 by evaporating dichloromethane in a water bath at 29 °C using a rotary evaporator (Buchi Rotavapor R-200, New Castle, DE) under reduced pressure. For the animal exposures, high-efficiency particulate air (HEPA)-filtered laboratory air was passed through the PCB52-coated glass beads at a flow rate of 12 L/min to expose animals to PCB52 vapor in a nose-only exposure apparatus (Figure 1A). The flask of PCB52-coated beads and mixing chamber were kept at 25.0 °C using a precision water bath to facilitate the volatilization of PCB52. The PCB52-laden air was passed through a mixing chamber and distributed to the nose-only inhalation apparatus at a flow rate of 4 L/min per tower (n = 3) and a sampling cartridge filled with 10 g of Amberlite XAD-2 polymeric absorbent resin (Sigma-Aldrich, St. Louis, MO) at a flow rate of 2 L/min. The specified flow rates were generated using flow meter-regulated pumps. The XAD-2 cartridge was used to capture PCB52 vapor to characterize the exposure atmosphere. A sham exposure group was exposed in parallel to HEPA-filtered clean air in an identical nose-only exposure system in an adjacent lab with no supplied PCB52.
The Institutional Animal Care and Use Committee of the University of Iowa approved all of the animal protocols. Animals were housed in a temperature- and humidity-controlled room (21 °C, 55% relative humidity) with a 12 h light/dark cycle in an Association for the Assessment and Accreditation of Laboratory Animal Care (AAALAC) accredited animal facility. Animals were provided with food (sterile Teklad 5% stock diet, Harlan, Madison, WI) and water ad libitum throughout the study. Thirty-six male and female Sprague–Dawley rats (7 weeks of age; Charles River, Wilmington, MA) were allowed to acclimate to the animal facility for 8 days after arrival. Prior to exposure, rats (227 ± 27 and 197 ± 13 g, male and female, respectively) were randomly assigned to the exposure groups (n = 6 per group) using a random number generated (Excel, version 2307). Animals were simultaneously exposed for 4 h to a low or high concentration of PCB52-laden per sex) or filtered lab air (Figure 1A). Exposure duration was limited to 4 h along with scheduled training days (30 min at 55 days of age and 2 h at 56 days of age) to acclimate animals and minimize stress. […] Animal exposure occurred for 4 h at 57 days of age. Rats are considered adolescents at this age.[38] Serum was collected immediately after the animals were removed from the nose-only apparatus by cardiac puncture under isoflurane anesthesia. Rats were perfused with saline, and organs were excised and stored at −80 °C. Body and organ weights, including brain, lungs, and thymus, were not altered by PCB52 inhalation regardless of sex or exposure (Tables S2 and S3).
PCB52 and its hydroxylated metabolites were extracted from tissues, serum, and cecum and intestinal content using a published protocol;[40],[41] see the Supporting Information. Briefly, PCB52 and its metabolites were extracted from homogenates by liquid–liquid extraction and cleaned by solid-phase extraction with acidified silica gel. PCB52 and metabolites were quantified in the multiple reaction monitoring setting (MRM) on an Agilent 7890 A GC system equipped with an Agilent 7000 Triple Quad and Agilent 7693 autosampler (Agilent Technologies, Santa Clara, CA); see the Supporting Information.
PCB52 and metabolite levels, adjusted for tissue wet weight, are reported as the mean ± standard deviation. Differences in PCB52 and metabolite levels from the GC-MS/MS analysis were analyzed with the Tobit regression model because some measurements are below the detection limit. […]

[2] = design: method as in PMID 36804509; settings: 3 weeks after intraperitoneal administration of PCB52 100 mg/kg bw; cited from earlier work
[3] = design: method as in PMID 23582014; settings: male rats exposed acutely to PCB11 vapors; cited from earlier work
[4] = design: method as in PMID 24275706; settings: cited from earlier work

Compound `Oc1cc(Cl)c(-c2cc(Cl)ccc2Cl)cc1Cl` [4-OH-PCB52, 2,2′,5,5′-Tetrachlorobiphenyl-4-ol] has a concentration at 4 h ([1]; both sexes, brain, irrespective of sex and exposure group, GC-MS/MS, read-out: level in the brain (below the detection limit)) of under 0.16 ng/g, a concentration at 4 h ([1]; female, adipose, female, high dose, mean, read-out: PCB or metabolite detected level, Adipose) of 0.2 ng/g and a concentration at 4 h ([1]; female, cecum, female, high dose, mean, read-out: PCB or metabolite detected level, Cecum) of 3 ng/g. The concentration at 4 h ([1]; female, cecum, female, low dose, mean, read-out: PCB or metabolite detected level, Cecum) was 2 ng/g, the concentration at 4 h ([1]; female, intestinal content, female, high dose, mean, read-out: PCB or metabolite detected level, Intestinal content) was 5 ng/g and the concentration at 4 h ([1]; female, intestinal content, female, low dose, mean, read-out: PCB or metabolite detected level, Intestinal content) was 4 ng/g. For the same compound, the concentration at 4 h ([1]; female, liver, female, high dose, mean, read-out: PCB or metabolite detected level, Liver) was 0.2 ng/g, the concentration at 4 h ([1]; female, liver, female, low dose, mean, read-out: PCB or metabolite detected level, Liver) was 0.2 ng/g and the concentration at 4 h ([1]; female, lung, female, high dose, mean, read-out: PCB or metabolite detected level, Lung) was 0.2 ng/g. The concentration at 4 h ([1]; female, lung, female, low dose, mean, read-out: PCB or metabolite detected level, Lung) was 0.1 ng/g, the concentration at 4 h ([1]; female, serum, female, high dose, mean, read-out: PCB or metabolite detected level, Serum) was 0.1 ng/g and the concentration at 4 h ([1]; female, serum, female, low dose, mean, read-out: PCB or metabolite detected level, Serum) was 0.4 ng/g. The concentration at 4 h ([1]; male, adipose, male, high dose, mean, read-out: PCB or metabolite detected level, Adipose) was 0.2 ng/g, the concentration at 4 h ([1]; male, cecum, male, high dose, mean, read-out: PCB or metabolite detected level, Cecum) was 2 ng/g and the concentration at 4 h ([1]; male, cecum, male, low dose, mean, read-out: PCB or metabolite detected level, Cecum) was 1 ng/g. It also gave a concentration at 4 h ([1]; male, intestinal content, male, high dose, mean, read-out: PCB or metabolite detected level, Intestinal content) of 0.4 ng/g, a concentration at 4 h ([1]; male, liver, male, high dose, mean, read-out: PCB or metabolite detected level, Liver) of 0.3 ng/g and a concentration at 4 h ([1]; male, liver, male, low dose, mean, read-out: PCB or metabolite detected level, Liver) of 0.1 ng/g. It also gave a concentration at 4 h ([1]; male, lung, male, high dose, mean, read-out: PCB or metabolite detected level, Lung) of 0.2 ng/g, a concentration at 4 h ([1]; male, lung, male, low dose, mean, read-out: PCB or metabolite detected level, Lung) of 0.1 ng/g and a concentration at 4 h ([1]; male, serum, male, high dose, mean, read-out: PCB or metabolite detected level, Serum) of 0.4 ng/g. For the same compound, the concentration at 4 h ([1]; male, serum, male, low dose, mean, read-out: PCB or metabolite detected level, Serum) was 0.4 ng/g and the “detection frequency in the rat brain” value [2] was 20%.
For `Clc1cccc(-c2cccc(Cl)c2)c1` [PCB11, 3,3′-dichlorobiphenyl], the “rank order of tissue levels” value [3] is listed as “lung > serum > liver”, the “time to radioactivity in the systemic circulation” value ([4]; intratracheally instilled 14C-labeled PCB11) is listed as at most 12 min and the “time of highest levels of extractable PCB11 metabolites in the jejunum and ileum” value ([4]; postexposure) is listed as “approximately 100 min”.
